Test results from patent US20250090699A1, “FAP TARGETING CYCLIC PEPTIDES AND CONJUGATES THEREOF” (Novartis AG, priority 2023, published 2025).
Where a name gives a salt, the structure may show the parent alone. Starred links: 1 amine or outer side, 2 acyl side, 3 side chain; linkers in the order of their positions; H or OH if unused. Non-standard residues stand in square brackets, D forms with d. Residues, ends and D or L forms follow the SMILES beside them. Groups on a side chain read outwards from the residue. *: point of attachment. F(4amPEG2NHDOTA-Lu) = lutetium complex of (S)-2,2',2''-(10-(1-(4-(2-amino-2-carboxyethyl)phenyl)-3,12-dioxo-5,8-dioxa-2,11-diazatridecan-13-yl)-1,4,7,10-tetraazacyclododecane-1,4,7-triyl)triacetic acid (Phe with 4-aminomethyl-PEG2-DOTA-Lu), O=C([O-])CN1CCN(CC(=O)[O-])CCN(CC(=O)NCCOCCOCC(=O)NCc2ccc(C[C@H](N[*:1])C(=O)[*:2])cc2)CCN(CC(=O)[O-])CC1.[Lu+3]; F4(amBAlaDOTALu) = lutetium complex of (S)-2,2',2''-(10-(2-((3-((4-(2-amino-2-carboxyethyl)benzyl)amino)-3-oxopropyl)amino)-2-oxoethyl)-1,4,7,10-tetraazacyclododecane-1,4,7-triyl)triacetic acid (Phe with 4-aminomethyl-βAla-DOTA-Lu), O=C([O-])CN1CCN(CC(=O)[O-])CCN(CC(=O)NCCC(=O)NCc2ccc(C[C@H](N[*:1])C(=O)[*:2])cc2)CCN(CC(=O)[O-])CC1.[Lu+3]; F(4OEtnHNODAGA-Lu) = lutetium complex of 2,2'-(7-(4-((2-(4-((S)-2-amino-2-carboxyethyl)phenoxy)ethyl)amino)-1-carboxy-4-oxobutyl)-1,4,7-triazonane-1,4-diyl)diacetic acid (Phe with 4-O-ethylamino-NODAGA-Lu); F(4OEtNHRDOTAGA-Lu) = Phe with 4-O-ethyl-NH-DOTAGA, Lu complex; DOTA = O=C(O)CN1CCN(CC(=O)O)CCN(CC(=O)*)CCN(CC(=O)O)CC1; Piperazinyl(4-CH2COOH) = O=C(O)CN1CCN(*)CC1; AEF = NCCOc1ccc(C[C@H](N)C(=O)O)cc1; NMeCha = CN[C@@H](CC1CCCCC1)C(=O)O; NMeF = CN[C@@H](Cc1ccccc1)C(=O)O; Ahp(2) = CCCCC[C@H](N)C(=O)O; Nphe = O=C(O)CNCc1ccccc1; CO = O=C([*:1])[*:2]

What was measured:
mouse FAP [1] = target: T1, mouse FAP (Mus musculus, UniProt P97321); test: Enzymatic FAP competition assay (Z-Gly-Pro-AMC fluorescence), mouse FAP; assay type: biochemical; conditions: read-out: m. FAP, Enz., IC50
T1 construct: biotinylated His, Avi tag, mouse FAP (26-761, FAP-M82Q5); His; Avi tag (biotinylated); purchased AcroBiosystems FAP-M82Q5
T1 sequence (P97321 26-761): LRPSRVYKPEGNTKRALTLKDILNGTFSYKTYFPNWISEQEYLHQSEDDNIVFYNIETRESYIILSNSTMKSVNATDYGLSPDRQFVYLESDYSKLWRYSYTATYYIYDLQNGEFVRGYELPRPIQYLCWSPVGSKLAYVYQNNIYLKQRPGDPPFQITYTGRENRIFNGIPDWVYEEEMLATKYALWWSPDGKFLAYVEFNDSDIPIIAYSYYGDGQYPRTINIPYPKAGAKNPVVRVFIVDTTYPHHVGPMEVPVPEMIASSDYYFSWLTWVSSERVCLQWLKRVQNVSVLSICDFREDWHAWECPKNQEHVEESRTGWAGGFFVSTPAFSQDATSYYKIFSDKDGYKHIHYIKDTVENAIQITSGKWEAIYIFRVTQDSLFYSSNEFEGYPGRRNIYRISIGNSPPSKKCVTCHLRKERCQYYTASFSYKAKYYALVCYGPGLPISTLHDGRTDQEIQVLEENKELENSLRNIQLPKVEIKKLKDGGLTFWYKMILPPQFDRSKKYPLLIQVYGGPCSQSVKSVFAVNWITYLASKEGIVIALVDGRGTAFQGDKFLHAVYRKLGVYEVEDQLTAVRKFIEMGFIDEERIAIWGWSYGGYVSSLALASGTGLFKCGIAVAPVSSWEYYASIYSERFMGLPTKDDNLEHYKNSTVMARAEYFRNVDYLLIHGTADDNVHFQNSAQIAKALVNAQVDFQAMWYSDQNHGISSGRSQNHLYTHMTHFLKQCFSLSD
Method in brief: (§1)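 IC50 values come from curve fitting of duplicate % inhibition data on AMC fluorescence (ex 380, em 460 nm) after 4 h at 22-24° C with 50 μM Z-Gly-Pro-AMC. Beforehand, peptides up to 1 μM (14 levels) sat 24 h with 0.01 nM human (26-760) or mouse (26-761) tagged FAP in phosphate buffer pH 7.5, NaCl, Tween20, 1% DMSO.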

mouse FAP [2] = target: T1, mouse FAP; test: Surface plasmon resonance (SPR) for peptide affinity, mouse FAP; assay type: binding
Method in brief: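 KD values come from a 1:1 kinetic fit of single-cycle SPR data: 8 peptide concentrations, 25 °C, 30 μL/min, HEPES-buffered saline pH 7.6 with 2% DMSO. Targets were His/Avi-tagged human (26-760) or mouse (26-761) FAP, amine-coupled to CM5 or held on a CAPture chip.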

human FAP = target: T2, human FAP (Homo sapiens, UniProt Q12884); test: Enzymatic FAP competition assay (Z-Gly-Pro-AMC fluorescence), human FAP; assay type: biochemical; conditions: read-out: h. FAP, Enz., IC50
T2 construct: the biotinylated His, Avi tag, human FAP (26-760, FAP-H82Q6); His; Avi tag (biotinylated); purchased AcroBiosystems FAP-H82Q6
T2 sequence (Q12884 26-760): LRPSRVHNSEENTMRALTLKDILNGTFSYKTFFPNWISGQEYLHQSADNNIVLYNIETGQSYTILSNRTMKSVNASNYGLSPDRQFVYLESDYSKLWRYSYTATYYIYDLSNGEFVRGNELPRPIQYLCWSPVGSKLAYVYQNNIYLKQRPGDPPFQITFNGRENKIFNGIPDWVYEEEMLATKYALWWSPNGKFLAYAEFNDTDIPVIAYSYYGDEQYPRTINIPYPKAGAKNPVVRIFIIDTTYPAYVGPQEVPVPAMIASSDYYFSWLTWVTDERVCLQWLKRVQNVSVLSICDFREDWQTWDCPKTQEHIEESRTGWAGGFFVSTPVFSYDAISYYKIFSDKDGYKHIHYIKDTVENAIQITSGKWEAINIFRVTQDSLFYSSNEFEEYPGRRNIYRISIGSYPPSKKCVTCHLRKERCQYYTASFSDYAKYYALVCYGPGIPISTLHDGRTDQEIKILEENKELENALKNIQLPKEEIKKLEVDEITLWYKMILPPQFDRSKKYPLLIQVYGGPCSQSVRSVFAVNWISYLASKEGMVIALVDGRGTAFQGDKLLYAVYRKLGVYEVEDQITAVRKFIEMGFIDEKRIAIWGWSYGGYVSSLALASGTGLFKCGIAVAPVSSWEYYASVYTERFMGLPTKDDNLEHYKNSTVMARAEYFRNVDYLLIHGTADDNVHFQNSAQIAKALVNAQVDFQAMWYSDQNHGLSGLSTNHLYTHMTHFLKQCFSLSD
Method in brief: as §1

IC50 (mouse FAP [1]) [nM]	Kd (mouse FAP [2]) [nM]	IC50 (human FAP) [nM]	Compound
0.193	< 0.017	0.034	Gly-Gly-NMePhe-F(4OEtnHNODAGA-Lu)-Ahp-Trp-Gly-Tyr-Asp-D-Pro (cyclo(GG[NMeF][F(4OEtnHNODAGA-Lu)][Ahp(2)]WGYD[dP]); also: Lu complex) [Example C30]
0.032	< 0.039	0.011	hSer-Gly-NMePhe-F(4amPEG2NHDOTA-Lu)-hS(Pr)-Trp-Gly-K(COpipzaa)-Asp-D-Pro [Example C4]
0.027	< 0.01	0.007	Gly-Gly-NMePhe-F(4OEtNHRDOTAGA-Lu)-Ahp-Trp-Gly-Tyr-Asp-D-Pro (cyclo(GG[NMeF][F(4OEtNHRDOTAGA-Lu)][Ahp(2)]WGYD[dP]); also: Lu complex of DOTAGA) [Example C31]
0.009	0.013	0.003	Gly-Gly-NMePhe-F(4amPEG2NHDOTA-Lu)-Ahp-Trp-Gly-Tyr-Asp-D-Pro (cyclo(GG[NMeF][F(4amPEG2NHDOTA-Lu)][Ahp(2)]WGYD[dP]); also: Lu complex) [Example C15]
0.024	0.033	0.01	Gly-Gly-NMePhe-F4(amBAlaDOTALu)-Ahp-Trp-Gly-Tyr-Asp-D-Pro (cyclo(GG[NMeF][F4(amBAlaDOTALu)][Ahp(2)]WGYD[dP]); also: Lu complex) [Example C10]

Continued, compound first:

Compound	IC50 (mouse FAP [1]) [nM]	Kd (mouse FAP [2]) [nM]	IC50 (human FAP) [nM]
CCCCC[C@@H]1NC(=O)[C@H](Cc2ccc(O)cc2)NC(=O)[C@H](CC2CCCCC2)N(C)C(=O)CNC(=O)[C@H](CCCCN)NC(=O)[C@H]2CCCN2C(=O)[C@H](CC(=O)O)NC(=O)[C@H](Cc2ccc(O)cc2)NC(=O)CNC(=O)[C@H](Cc2c[nH]c3ccccc23)NC1=O [Example A43, Lys-Gly-NMecHexA-Tyr-Ahp-Trp-Gly-Tyr-Asp-D-Pro, TFA salt] (cyclo([Ahp(2)]WGYD[dP]KG[NMeCha]Y))	0.189	0.188	0.069
CCCCC[C@@H]1NC(=O)[C@H](Cc2ccc(O)cc2)NC(=O)[C@H](Cc2ccccc2)N(C)C(=O)CNC(=O)CNC(=O)[C@H]2CCCN2C(=O)[C@H](CC(=O)O)NC(=O)CN(Cc2ccccc2)C(=O)CNC(=O)[C@H](Cc2c[nH]c3ccccc23)NC1=O [Example A74, Gly-Gly-NMePhe-Tyr-Ahp-Trp-Gly-NBnG-Asp-D-Pro] (cyclo(GG[NMeF]Y[Ahp(2)]WG[Nphe]D[dP]))	3.3	4.6	1.4
CCCCC[C@@H]1NC(=O)[C@H](Cc2ccc(O)cc2)NC(=O)[C@H](Cc2ccccc2)N(C)C(=O)CNC(=O)CNC(=O)[C@H]2CCCN2C(=O)[C@H](CCC(=O)O)NC(=O)[C@H](Cc2ccc(O)cc2)NC(=O)CNC(=O)[C@H](Cc2c[nH]c3ccccc23)NC1=O [Example A71, Gly-Gly-NMePhe-Tyr-Ahp-Trp-Gly-Tyr-Glu-D-Pro] (cyclo([Ahp(2)]WGYE[dP]GG[NMeF]Y))	0.61	0.242	0.69
CCCCC[C@@H]1NC(=O)[C@H](Cc2ccc(OCCNC(=O)CN3CCN(CC(=O)O)CCN(CC(=O)O)CCN(CC(=O)O)CC3)cc2)NC(=O)[C@H](Cc2ccccc2)N(C)C(=O)CNC(=O)[C@H](CCCCNC(=O)N2CCN(CC(=O)O)CC2)NC(=O)[C@H]2CCCN2C(=O)[C@H](CC(=O)O)NC(=O)[C@H](Cc2ccc(O)cc2)NC(=O)CNC(=O)[C@H](Cc2c[nH]c3ccccc23)NC1=O [Example B25, K(COpipzaa)-Gly-NMePhe-F(4OEtNHDOTA)-Ahp-Trp-Gly-Tyr-Asp-D-Pro] (cyclo([AEF](DOTA)[Ahp(2)]WGYD[dP]K([CO-Piperazinyl(4-CH2COOH)])G[NMeF]))	0.38	0.44	0.1
